Source: patent US10391095B2, “DNA-PK inhibitors” (Vertex Pharmaceuticals Incorporated, priority 2012, dated 2019)

Target: DNA-PK (Homo sapiens, UniProt P78527)
Test: DNA-PK inhibition assay (radiometric, 33P-ATP)
Assay type: biochemical
Conditions: 100 μM ATP, competitive tight-binding fit
Outline: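 Approx. 6 nM DNA-PK with 10 µg/mL sheared dsDNA, 0.8 mg/mL peptide substrate and 100 µM 33P-ATP in HEPES pH 7.5, 10 mM MgCl2; 45 min, phosphoric acid quench. Phosphopeptide captured on filter plates and counted by scintillation; Ki from a competitive tight-binding model fit.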

SMILES | Ki [nM]
CNC(=O)c1ccc([C@H](C)CNc2cc(-c3ccc(N(C)C(C)C4CC4)nc3)ncn2)c(OC)c1 (stereo partly drawn) [Compound 341] | < 30
CNC(=O)c1ccc([C@H](C)CNc2cc(-c3ccc4c(c3)CCN4C)ncn2)c(OC)c1 [Compound 342] | < 30
COc1cc(N)ncc1C(C)CNc1cc(-c2ccc(N3CCN(C(C)=O)CC3)nc2)ncn1 (stereo not drawn) [Compound 345] | < 30
Cc1ccc(-c2cc(NCC(C)c3cccc4cc(F)cnc34)ncn2)cn1 (stereo not drawn) [Compound 346] | < 30
CNC(=O)c1ccc([C@H](C)CNc2cc(-c3ccc(N(C)C4CCN(C)CC4)nc3)ncn2)c(OC)c1 [Compound 347] | < 30
CNC(=O)c1ccc([C@H](C)CNc2cc(-c3ccc(NC4CCN(C)CC4)nc3)ncn2)c(OC)c1 [Compound 348] | < 30
CNC(=O)c1ccc([C@H](C)CNc2cc(-c3ccc(CN)cc3)ncn2)c(OC)c1 [Compound 351] | < 30
CNC(=O)c1ccc([C@H](C)CNc2cc(-c3ccc(NC(CO)CO)nc3)ncn2)c(OC)c1 [Compound 353] | < 30
CNC(=O)c1ccc([C@H](C)CNc2cc(-c3ccc(Nc4nc[nH]n4)nc3)ncn2)c(OC)c1 [Compound 354] | < 30
CNC(=O)c1ccc([C@H](C)CNc2cc(-c3ccc(NCCCO)nc3)ncn2)c(OC)c1 [Compound 355] | < 30
CNCCCNc1ccc(-c2cc(NC[C@@H](C)c3ccc(C(=O)NC)cc3OC)ncn2)cn1 [Compound 356] | < 30
CNC(=O)c1ccc([C@H](C)CNc2cc(-c3ccc(NC)nc3)ncn2)c(OC)c1 [Compound 358] | < 30
CNC(=O)c1ccc([C@H](C)CNc2cc(-c3ccc(N(C)C)nc3)ncn2)c(OC)c1 [Compound 359] | < 30
CCNc1ccc(-c2cc(NC[C@@H](C)c3ccc(C(=O)NC)cc3OC)ncn2)cn1 [Compound 360] | < 30
CCCNc1ccc(-c2cc(NC[C@@H](C)c3ccc(C(=O)NC)cc3OC)ncn2)cn1 [Compound 361] | < 30
CCN(C)c1ccc(-c2cc(NC[C@@H](C)c3ccc(C(=O)NC)cc3OC)ncn2)cn1 [Compound 362] | < 30
CNC(=O)c1ccc([C@H](C)CNc2cc(-c3ccc(N4CCCC4)nc3)ncn2)c(OC)c1 [Compound 363] | < 30
CNC(=O)c1ccc([C@H](C)CNc2cc(-c3ccc(NCC4CC4)nc3)ncn2)c(OC)c1 [Compound 364] | < 30
CNC(=O)c1ccc([C@H](C)CNc2cc(-c3ccc(N(C)CCO)nc3)ncn2)c(OC)c1 [Compound 365] | < 30
CNC(=O)c1ccc([C@H](C)CNc2cc(-c3ccc(N4CC=CCC4)nc3)ncn2)c(OC)c1 [Compound 366] | < 30
CNC(=O)c1ccc([C@H](C)CNc2cc(-c3ccc(N4CCOCC4)nc3)ncn2)c(OC)c1 [Compound 367] | < 30
CNCCN(C)c1ccc(-c2cc(NC[C@@H](C)c3ccc(C(=O)NC)cc3OC)ncn2)cn1 [Compound 368] | < 30
CNC(=O)c1ccc([C@H](C)CNc2cc(-c3ccc(NCCN(C)C)nc3)ncn2)c(OC)c1 [Compound 369] | < 30
CNC(=O)c1ccc([C@H](C)CNc2cc(-c3ccc(N(C)CCOC)nc3)ncn2)c(OC)c1 [Compound 370] | < 30
CNC(=O)c1ccc([C@H](C)CNc2cc(-c3ccc(NCCCOC)nc3)ncn2)c(OC)c1 [Compound 375] | < 30
CNC(=O)c1cc(OC)c(C(C)CNc2cc(-c3ccc(C)nc3)ncn2)cn1 (stereo not drawn) [Compound 376] | < 30

SMILES | Ki [nM]
COc1cc(C(=O)Nc2ccccc2)ccc1C(C)CNc1cc(-c2ccc(C)nc2)ncn1 (stereo not drawn) [Compound 377] | < 30
COc1cc(C=O)ccc1C(C)CNc1cc(-c2ccc(C)nc2)ncn1 (stereo not drawn) [Compound 378] | < 30
CC(CNc1cc(-c2cnc3c(cnn3CCO)c2)ncn1)c1cc(F)c(F)cc1OC1CCC1 (stereo not drawn) [Compound 382] | < 30
C#CCNc1ccc(-c2cc(NC[C@@H](C)c3ccc(C(=O)NC)cc3OC)ncn2)cn1 [Compound 385] | < 30
C=CCNc1ccc(-c2cc(NC[C@@H](C)c3ccc(C(=O)NC)cc3OC)ncn2)cn1 [Compound 387] | < 30
CNC(=O)c1ccc([C@H](C)CNc2cc(-c3ccc(NC4CC4)nc3)ncn2)c(OC)c1 [Compound 388] | < 30
C=C(C)CNc1ccc(-c2cc(NC[C@@H](C)c3ccc(C(=O)NC)cc3OC)ncn2)cn1 [Compound 389] | < 30
CNC(=O)c1ccc([C@H](C)CNc2cc(-c3ccc(NCC(F)F)nc3)ncn2)c(OC)c1 [Compound 390] | < 30
CNC(=O)c1ccc([C@H](C)CNc2cc(-c3ccc(N4CCC4)nc3)ncn2)c(OC)c1 [Compound 395] | < 30
CNC(=O)c1ccc([C@H](C)CNc2cc(-c3ccc(Nc4ccncc4)nc3)ncn2)c(OC)c1 [Compound 396] | < 30
Cc1ccc(-c2cc(NCC(C)c3cccc4nsnc34)ncn2)cn1 (stereo not drawn) [Compound 398] | < 30
CC(CNc1cc(-c2cnc3c(cnn3CCO)c2)ncn1)c1csc2cccnc12 (stereo not drawn) [Compound 399] | < 30
CC(CNc1cc(-c2cnc3c(cnn3CCO)c2)ncn1)c1ccnc2cccnc12 (stereo not drawn) [Compound 400] | < 30
CC(CNc1cc(-c2cnc3c(cnn3CCO)c2)ncn1)c1cccc2nccnc12 (stereo not drawn) [Compound 401] | < 30
CC(CNc1cc(-c2cnc3c(cnn3CCO)c2)ncn1)c1cccc2scnc12 (stereo not drawn) [Compound 402] | < 30
COc1cc(C(=O)NCC(F)F)ccc1[C@H](C)CNc1cc(-c2ccc(C)nc2)ncn1 [Compound 405] | < 30
Cc1ccc(-c2cc(NCC(C)c3cncc4nccnc34)ncn2)cn1 (stereo not drawn) [Compound 407] | < 30
CNc1ccccc1[C@H](C)CNc1cc(-c2ccc(C(=O)NCCC#N)nc2)ncn1 [Compound 408] | < 30
Cc1ccc(-c2cc(NCC(C)c3cncc4cccnc34)ncn2)cn1 (stereo not drawn) [Compound 414] | < 30
Cc1ncc(-c2cc(NC[C@@H](C)c3ccnc4c3OCC4)ncn2)cn1 [Compound 416] | < 30
C[C@H](CNc1cc(-c2cnc3c(cnn3C3COC3)c2)ncn1)c1ccnc2c1OCC2 [Compound 417] | < 30
CC(CNc1cc(-c2cnc3c(cnn3CCO)c2)ncn1)c1cncc2c1OCC2 (stereo not drawn) [Compound 419] | < 30
CC(CNc1cc(-c2cnc3c(cnn3C3COC3)c2)ncn1)c1cncc2c1OCC2 (stereo not drawn) [Compound 420] | < 30
COc1cc(Br)ccc1C(C)CNc1cc(-c2ccc(C)nc2)ncn1 (stereo not drawn) [Compound 423] | < 30
CC(CNc1cc(-c2cnc3c(cnn3CCO)c2)ncn1)c1ccnc2ccoc12 (stereo not drawn) [Compound 429] | < 30
CNc1ncc(-c2cc(NC[C@@H](C)c3ccnc4c3OCC4)ncn2)cn1 [Compound 430] | < 30

SMILES | Ki [nM]
CC(CNc1cc(-c2ccc(C(=O)NCCC#N)cc2)ncn1)c1ccnc2cccnc12 (stereo not drawn) [Compound 431] | < 30
C[C@H](CNc1cc(-c2ccc(C(=O)NCCC#N)cc2)ncn1)c1ccnc2c1OCC2 [Compound 432] | < 30
Cc1ccc(-c2cc(NCC(C)c3cccc4nc(C)c(C)nc34)ncn2)cn1 (stereo not drawn) [Compound 434] | < 30
Cc1ccc(-c2cc(NCC(C)c3cccc4c3OCC(=O)N4)ncn2)cn1 (stereo not drawn) [Compound 435] | < 30
C[C@H](CNc1cc(-c2cnc3[nH]ncc3c2)ncn1)c1ccnc2c1OCC2 [Compound 437] | < 30
C[C@H](CNc1cc(-c2cnc3c(cnn3C)c2)ncn1)c1ccnc2c1OCC2 [Compound 438] | < 30
CNC(=O)c1ccc(C(C)CNc2cc(-c3cnc4c(cnn4CC#N)c3)ncn2)c(OC)c1 (stereo not drawn) [Compound 441] | < 30
CNC(=O)c1ccc(C(C)CNc2cc(-c3cnc4c(cnn4CCC#N)c3)ncn2)c(OC)c1 (stereo not drawn) [Compound 442] | < 30
CC(CNc1cc(-c2cnc3c(cnn3CCO)c2)ncn1)c1ccnc2c1OCCO2 (stereo not drawn) [Compound 444] | < 30
Cc1ccc(-c2cc(NC[C@@H](C)c3cccc4nccnc34)ncn2)cn1 [Compound 445] | < 30
Cc1ccc(-c2cc(NCC(C)c3cccc4c3OCCO4)ncn2)cn1 (stereo not drawn) [Compound 447] | < 30
CNC(=O)c1ccc(C(C)CNc2cc(-c3cn(C4COC4)c4ncc(F)cc34)ncn2)c(OC)c1 (stereo not drawn) [Compound 449] | < 30
Cc1ccc(-c2cc(NCC(C)c3cncc4c3OCCC4)ncn2)cn1 (stereo not drawn) [Compound 451] | < 30
CC(CNc1cc(-c2cnc3c(cnn3CCO)c2)ncn1)c1cncc2c1OCCC2 (stereo not drawn) [Compound 452] | < 30
C=C(CNc1cc(-c2ccc(C)nc2)ncn1)c1cnc(N)nc1OC [Compound 453] | < 30
CNC(=O)c1ccc([C@H](C)CNc2cc(-c3ccc4ncccc4c3)ncn2)c(OC)c1 [Compound 454] | < 30
CC(=O)c1ccc(-c2cc(NC[C@@H](C)c3ccnc4c3OCCO4)ncn2)cc1 [Compound 456] | < 30
C[C@H](CNc1cc(-c2cnc(NCCO)nc2)ncn1)c1ccnc2c1OCCO2 [Compound 457] | < 30
COCc1ccc(-c2cc(NC[C@@H](C)c3ccnc4c3OCCO4)ncn2)cc1 [Compound 458] | < 30
C[C@H](CNc1cc(-c2ccc(N)nc2)ncn1)c1ccnc2c1OCCO2 [Compound 459] | < 30
C[C@H](CNc1cc(-c2ccc(N(C)C)nc2)ncn1)c1ccnc2c1OCCO2 [Compound 460] | < 30
CNc1ncc(-c2cc(NC[C@@H](C)c3ccnc4c3OCCO4)ncn2)cn1 [Compound 462, (S)—N^6-(2-(2,3-dihydro-[1,4]dioxino[2,3-b]pyridin-8-yl)propyl)-N^2′-methyl-[4,5′-bipyrimidine]-2′,6-diamine] | < 30
C[C@H](CNc1cc(-c2ccc3ncccc3c2)ncn1)c1ccnc2c1OCCO2 [Compound 464] | < 30
C[C@H](CNc1cc(-c2ccc(NC3CC3)nc2)ncn1)c1ccnc2c1OCCO2 [Compound 465] | < 30
COc1ccc(C(C)CNc2cc(-c3ccc(C)nc3)ncn2)c(OC)n1 (stereo not drawn) [Compound 466] | < 30
C=C(CNc1cc(-c2ccc(C)nc2)ncn1)c1cccc2c(C(=O)NC)ccnc12 [Compound 467] | < 30
